Our source for the Kd values is paper PMC9085743, “Identification of oleoylethanolamide as an endogenous ligand for HIF-3α” (Nature Communications, 2022).

The test deals with T1, HIF-3α (Mus musculus, UniProt Q0VBL6).
T1 construct: gene Hif3a; SPR: MBP-HIF-3α-PAS-B (residues 235-363); crystal: HIF-3α residues 4-358 with ARNT residues 82–464; with ARNT (in the crystal, thermal shift, AS-MS, TR-FRET and HDX-MS; not in SPR)
Put plainly: co-crystal structure ([…] Å), SPR, thermal shift, AS-MS, HDX-MS. The class given is binding.

T1 sequence (Q0VBL6 235-363): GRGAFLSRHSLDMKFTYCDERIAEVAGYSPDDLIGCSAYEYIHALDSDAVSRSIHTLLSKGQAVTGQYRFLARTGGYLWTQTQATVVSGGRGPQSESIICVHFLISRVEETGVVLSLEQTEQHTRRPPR

For the compound `CCCCCCCC/C=C\CCCCCCCC(=O)NCCO` [OEA, oleoylethanolamide], the dissociation constant Kd (as a rule, a measure of binding affinity in units of concentration) is ~14 µM.
